From patent publication US10214529B2, “Small molecules for the treatment of primary cancer and cancer metastasis” (THE BOARD OF REGENTS OF THE UNIVERSITY OF TEXAS SYSTEM, priority 2015, dated 2019)

Columns and labels:
[1] = test system: MDA-MB-231 human breast cancer cells; assay: Transwell cell migration assay; type: cell-based; conditions: MDA-MB-231 cells, 18-20 hr
Description: (§1) MDA-MB-231 cells were grown in McCoy's 5A Modified Media (Gibco) supplemented with 10% FBS (Hyclone). Py8119 cells were grown in F12K nutrient media (Gibco) supplemented with 5% Fetal Clone II (Fisher Scientific). All cell lines were incubated in a 5% CO2 incubator at 37° C.
Migration assays were performed in transwell membrane filter inserts in 24-well tissue culture plates (BD Biosciences San Jose, Calif., USA). The transwell membrane filter inserts contained 6.5-mm diameter, 8-μm pore size, […] polycarbonate membranes. Five-hundred microliter breast cancer cell suspensions were added to the upper side of the inserts at a density of 10×10^4 cells/insert and 750 μl CM with or without other compounds was added to the lower wells. Cells were incubated at 37° C. for 18-20 hr. […] The number of migrated cells in 5 fields of view per insert was counted under a light microscope at magnification 10×.

MDA-MB-231 cells [2] = assay: Mammary fat pad xenograft assay; type: in vivo; conditions: after 15 days; 500 μl of a 400 μM solution, IP three times a week; MDA-MB-231 xenograft in nude mice
Excerpt: Four-week-old female athymic nude mice (Harlan Sprague-Dawley, Indianapolis, Ind., USA) were used for the mammary fat pad injections. Four- to five-week old female C57bl/6 mice were used for the intratibial injections. Animals were maintained under the care and supervision of the Laboratory Animal Research facility at the University of Texas Health Science Center, San Antonio, Tex. The animal protocol was approved and monitored by the Institutional Animal Care and Use Committee.
MDA-MB-231 cells were injected subcutaneously in the mammary fat pad of 4-week-old female nu/nu athymic nude mice. Each mouse received bilateral subcutaneous inoculation in both the left and right inguinal mammary fat pad areas with 100 μl of cell suspension containing ˜1×10^7 cells/ml in serum-free media. Animals were randomly assigned to 3 different groups, and solid tumors were allowed to form up to about 5 mm^3 volume before treatments began. Compound P3 400 μmol/500 μl saline, or saline as a control was administered intraperitoneally (IP) three times a week for 3 weeks. The growth of xenograft tumors was monitored twice a week and tumor size was measured with a caliper in two dimensions. Tumor volumes were calculated with the equation V=(L×W^2)×0.5 (mm^3), where L is length and W is width of a tumor.

MDA-MB-231 cells [3] = assay: Soft agar colony formation assay (anchorage independent cell growth); type: cell-based, human; conditions: 50 μM compound, about 2 weeks
Description: as §1
For anchorage-independent cell growth, MDA-MB-231 cells were plated in 0.4% agarose with complete medium supplemented with 50 μM compound (P1 to P10) on top of a 0.8% agarose base supplemented with complete medium. Cells were maintained for about 2 weeks before staining with p-iodonitrotetrazolium violet (Sigma-Aldrich, St. Louis, Mo.). Images were captured by using a scanner and the numbers of colonies were counted.

SMILES | inhibitory effects on cell migration [1] | reduction in the tumor size compared to control mice (MDA-MB-231 cells [2]) | decrease in cell colonies as compared to control (MDA-MB-231 cells [3])
CCCn1c(=O)c2nc(-c3ccc(OCc4nc5cc(F)ccc5[nH]4)cc3)[nH]c2n(CCC)c1=O [Compound P4] | inhibitory effects |  | 
CCOc1ccc(-c2nc3c(N)ncnc3n2CC2CCC2)cc1 [Compound P9] | inhibitory effects |  | 
CCCn1c(=O)c2nc(-c3ccc(OCc4nc5cc(C(F)(F)F)ccc5[nH]4)cc3)[nH]c2n(CCC)c1=O [Compound P3] | inhibitory effects | more than 50% | 65%
CCCn1c(=O)c2nc(-c3ccc(OCc4nc5cc(C)ccc5[nH]4)cc3)[nH]c2n(CCC)c1=O [Compound P5] | inhibitory effects |  | 
CCCn1c(=O)c2nc(-c3ccc(OCc4nc5ccccc5[nH]4)cc3)[nH]c2n(CCC)c1=O [Compound P2] | inhibitory effects |  | 30%
